Measured values reported in US11167014B2, “Solid glp-1 derivative compositions for oral administration” (Novo Nordisk A/S, priority 2017, dated 2021).
Values joined by “and” are separate entries in the source; they are usually repeats but may differ in a detail not shown here. Equal entries are not always repeated.

Experiments:
Caco-2 cell monolayers = assay: Assay (I): epithelial cell monolayer permeability (transepithelial transport, Papp) and TEER, Caco-2
Method: Caco-2 cells were seeded in culturing flasks and passaged in Dulbecco's Modified Eagle' (DMEM) medium supplemented with 10% fetal bovine serum, 1% penicillin/streptomycin (100 U/ml and 100 μg/ml, respectively), 1% L-glutamine and 1% nonessential amino acids. Caco-2 cells were seeded onto tissue culture treated polycarbonate filters in 12-well Corning Transwell plates (1.13 cm^2, 0.4 μm pore size) at a density of 10^5 cells/well.
(§1) Cell monolayers were grown in an atmosphere of 5% CO2-95% O2 at 37° C., replacing growth media every other day. The experiment was performed on day 14-16 after cell seeding.
Before the experiment, cell monolayers were equilibrated for 60 min with transport buffer on both sides of the epithelium. The transport buffer consisted of Hank's balanced saline solution containing 0.1% Ovalbumin (w/v), 0.005% Tween20 (w/w) and 10 mM HEPES, adjusted to pH 7.4. The transport of [^3H]mannitol (PerkinElmer), was measured to verify the integrity of the epithelium.
(§2) Translocation of a given compound across cell layers is expressed as the apparent permeability (Papp), given by:
(§3) [formula] where dQ/dt is the steady-state flux across the cell layer (pmol/s), A is the surface area (1.12 cm^2), and C0 is the initial sample concentration.
Before and after the experiment the transepithelial electrical resistance (TEER) of the cell monolayers was monitored. After experiments, cells were washed twice with buffer and replenished with medium for 24 h TEER recovery to ensure that the cell monolayers were viable and the enhancer effects were transient. The TEER was measured with EVOM™ Epithelial Voltohmmeter connected to Chopsticks. For Caco-2 monolayers the starting TEER was typically around 1000 Ω·cm^2 and for N87 monolayers it was around 1600 Ω·cm^2.

NCI-N87 cell monolayers = assay: Assay (I): epithelial cell monolayer permeability (transepithelial transport, Papp) and TEER, NCI-N87
Method: N87 cells were seeded onto tissue culture treated polyester filters in 12-well Corning Transwell plates (1.13 cm^2, 0.4 μm pore size) at a density of 10^5 cells/well.
as §1
The amount of test compound transported from the donor chamber (apical side) to the receiver chamber (basolateral side) was measured as described in [1] for Caco-2 monolayers and in [2] for NCl-N87 cell monolayers, in an atmosphere of 5% CO2-95% O2 at 37° C. on a shaking plate (30 rpm). Before the experiment, cell monolayers were equilibrated for 60 min with transport buffer on both sides of the epithelium. The transport buffer consisted of Hank's balanced saline solution containing 0.1% Ovalbumin (w/v), 0.005% Tween20 (w/w) and 10 mM HEPES, adjusted to pH 7.4. The transport of [^3H]mannitol (PerkinElmer), was measured to verify the integrity of the epithelium.
as §2, §3
Before and after the experiment the transepithelial electrical resistance (TEER) of the cell monolayers was monitored. After experiments, cells were washed twice with buffer and replenished with medium for 24 h TEER recovery to ensure that the cell monolayers were viable and the enhancer effects were transient. The TEER was measured with EVOM™ Epithelial Voltohmmeter connected to Chopsticks.

[1] = Caco-2, experiment of Table 1 (semaglutide)
[2] = Caco-2, experiment of Table 2 (Compound B)
[3] = Caco-2, experiment of Table 5 (FD4)
[4] = Caco-2, experiments of Tables 9-10 (semaglutide, FD4)
[5] = NCI-N87, experiment of Table 3 (semaglutide)
[6] = NCI-N87, experiment of Table 4 (FD4)

SMILES: O=C(O)CCCCCCCNC(=O)c1ccccc1O [SNAC, sodium N-(8-(2-hydroxybenzoyl)amino)caprylate]
- transient decrease in cell monolayer TEER down to % of starting values (Caco-2 cell monolayers; [1]): ~25 % of starting values
- transient decrease in cell monolayer TEER down to % of starting values (Caco-2 cell monolayers; [2]): ~25 % of starting values
- transient decrease in cell monolayer TEER down to % of starting values (Caco-2 cell monolayers; [3]): ~35 % of starting values
- transient decrease in cell monolayer TEER down to % of starting values (Caco-2 cell monolayers; [4]): ~35 % of starting values
- transient decrease in cell monolayer TEER down to % of starting values (NCI-N87 cell monolayers; [5]): ~20 % of starting values
- transient decrease in cell monolayer TEER down to % of starting values (NCI-N87 cell monolayers; [6]): ~25 % of starting values

SMILES: CCOc1ccc(Cc2cc([C@@H]3O[C@H](CO)[C@@H](O)[C@H](O)[C@H]3O)ccc2Cl)cc1 [dapagliflozin]
- effect alone on Compound B permeability (Caco-2 cell monolayers; 0.5-2.0 mM dapagliflozin, Caco-2 cell monolayers): negligible effect
- transient decrease in cell monolayer TEER down to % of starting values (Caco-2 cell monolayers; [1]): ~25 % of starting values
- transient decrease in cell monolayer TEER down to % of starting values (Caco-2 cell monolayers; [2]): ~25 % of starting values
- transient decrease in cell monolayer TEER down to % of starting values (Caco-2 cell monolayers; [3]): ~35 % of starting values
- dapagliflozin concentration for which non-recovering TEER was observed (Caco-2 cell monolayers; Caco-2, 24 h in fresh medium): > 2.7 mM and 3 mM
- transient decrease in cell monolayer TEER down to % of starting values (NCI-N87 cell monolayers; [5]): ~20 % of starting values
- transient decrease in cell monolayer TEER down to % of starting values (NCI-N87 cell monolayers; [6]): ~25 % of starting values
- dapagliflozin concentration for which non-recovering TEER was observed (NCI-N87 cell monolayers; NCI-N87, 24 h in fresh medium): > 2.6 mM

SMILES: OC[C@H]1O[C@@H](c2ccc(Cl)c(Cc3ccc(O[C@H]4CCOC4)cc3)c2)[C@H](O)[C@@H](O)[C@@H]1O [empagliflozin]
- transient decrease in cell monolayer TEER down to % of starting values (Caco-2 cell monolayers; [4]): ~35 % of starting values
